Measured values published in US6589993B2, “Treating vancomycin-intermediates and multiresistant staphylococci infection with thiamphenicol or a salt thereof” (Zambon Group S.p.A., priority 2000, dated 2003).
Values after ≈ are worked out from the molar mass of the structure shown. Read-outs that look alike come from different tables or passages of the source.

Legend:
[1] = tested on: S. aureus Met-R multiresistant strains; test: MIC determination (NCCLS broth microdilution), methicillin-resistant multiresistant S. aureus strains; assay type: cell-based, Staphylococcus aureus; conditions: for % susceptible at breakpoint: NCCLS (1999) breakpoints; for MIC: antibiotype Oxa, Ery
Procedure: (§1) The MICs of thiamphenicol and of other antibiotics was obtained by using the method proposed by NCCLS (National Committee for Clinical Laboratory Standards, 1999).
(§2) Various antibiotic concentrations were added to bacteria in exponental growth (final inoculum 5×10^5 […]); dilution in Mb (cation-supplemented Mueller-Hinton broth) and distribution on a microplate by using an automatic diluting machine Biomek 1000 (Beckman, USA). MHb charged with 2% NaCl was used to test the methicillin activity.
(§3) The antibiotic concentration which hinders a visible growth after 18-24 hours of incubation at 37° C., was registered as MIC.
(§4) S. aureus ATCC 29213 was used as quality control strain.

[2] = tested on: S. aureus vancomycin-intermediates (VISA) Met-R strains; test: MIC determination (NCCLS broth microdilution), VISA Met-R strains; assay type: cell-based, Staphylococcus aureus; conditions: for MIC: antibiotype Oxa, Cip, Clin, Ery
Procedure: as §1, §2, §3, §4

For teicoplanine, the “MIC 50%” value ([1]; S. aureus (50) Met-R) was 0,5 mg/l, the “MIC 90%” value ([1]; S. aureus (50) Met-R) was 1 µg/mL and the “MIC Range” value ([1]; S. aureus (50) Met-R) was 0,12-2 mg/l. For the same compound, the “% susceptible at breakpoint” value ([1]; S. aureus (50) Met-R) was 100%, the MIC ([1]; Strain 1, Cip, Clin, Gm) was 0.25 µg/mL and the MIC ([1]; Strain 2, Clin, Fos) was 0.5 µg/mL. The MIC ([1]; Strain 3, Cip, Clin, Gm) was 1 µg/mL, the MIC ([1]; Strain 4, Cip, Gm) was 0.5 µg/mL and the MIC ([1]; Strain 5, Cip, Clin) was 1 µg/mL. It also gave an MIC ([1]; Strain 6, Clin, Gm) of 1 µg/mL, an MIC ([1]; Strain 7, Cip, Gm) of 0.25 µg/mL and an MIC ([1]; Strain 8, Cip, Clin) of 0.25 µg/mL. The MIC ([1]; Strain 9, Cip, Clin, Gm) was 0.25 µg/mL, the MIC ([1]; Strain 10, Cip, Clin, Gm) was 0.25 µg/mL and the MIC ([1]; Strain 11, Clin, Rif) was 1 µg/mL. It also gave an MIC ([1]; Strain 12, Cip, Clin) of 1 µg/mL, an MIC ([1]; Strain 13, Cip, Clin) of 1 µg/mL and an MIC ([1]; Strain 14, Clin, Cip) of 0.5 µg/mL. It also gave an MIC ([1]; Strain 15, Cip, Clin, Gm) of 0.25 µg/mL, an MIC ([1]; Strain 16, Cip, Clin) of 1 µg/mL and an MIC ([1]; Strain 17, Cip, Clin) of 0.25 µg/mL. The MIC ([1]; Strain 18, Cip, Clin, Gm) was 1 µg/mL, the MIC ([1]; Strain 19, Cip, Clin, Gm) was 1 µg/mL and the MIC ([1]; Strain 20, Cip, Clin, Gm) was 0.25 µg/mL. The MIC ([1]; Strain 21, Cip, Clin, Gm) was 0.5 µg/mL, the MIC ([1]; Strain 22, Cip, Clin) was 0.25 µg/mL and the MIC ([1]; Strain 23, Cip, Clin, Gm) was 0.5 µg/mL. The MIC ([1]; Strain 24, Cip, Clin, Gm) was 0.5 µg/mL, the MIC ([1]; Strain 25, Cip, Clin, Gm) was 1 µg/mL and the MIC ([1]; Strain 26, Cip, Clin, Fos, Gm) was 1 µg/mL. The MIC ([1]; Strain 27, Cip, Clin, Fos, Gm) was 1 µg/mL, the MIC ([1]; Strain 28, Cip, Clin, Gm) was 0.5 µg/mL and the MIC ([1]; Strain 29, Clin, Fos) was 0.5 µg/mL. For the same compound, the MIC ([1]; Strain 30, Cip, Clin, Gm, SXT, Dox) was 1 µg/mL, the MIC ([1]; Strain 31, Cip, Clin, Fox, Gm) was 0.5 µg/mL and the MIC ([1]; Strain 32, Cip, Clin, Gm, SXT, Rif) was 0.5 µg/mL. It also gave an MIC ([1]; Strain 33, Cip, Clin, Gm) of 0.5 µg/mL, an MIC ([1]; Strain 34, Cip, Clin, Gm) of 0.25 µg/mL and an MIC ([1]; Strain 35, Cip, Clin, Gm) of 0.5 µg/mL. The MIC ([1]; Strain 36, Cip, Clin, Fos) was 1 µg/mL, the MIC ([1]; Strain 37, Cip, Clin, Fos, Gm) was 0.25 µg/mL and the MIC ([1]; Strain 38, Cip, Gm) was 0.25 µg/mL. The MIC ([1]; Strain 39, Cip, Clin, Fos, Gm) was 0.25 µg/mL, the MIC ([1]; Strain 40, Cip, Clin, Gm) was 0.25 µg/mL and the MIC ([1]; Strain 41, Cip, Clin) was 0.25 µg/mL. It also gave an MIC ([1]; Strain 42, Cip, Clin, Gm) of 0.12 µg/mL, an MIC ([1]; Strain 43, Cip, Clin, Gm) of 0.5 µg/mL and an MIC ([1]; Strain 44, Cip, Clin, Gm, Rif, Dox) of 1 µg/mL. It also gave an MIC ([1]; Strain 45, Cip, Clin, Gm, Rif, Dox, Fos) of 0.5 µg/mL, an MIC ([1]; Strain 46, Clin, Fos) of 0.25 µg/mL and an MIC ([1]; Strain 47, Cip, Clin, Gm) of 0.12 µg/mL. It also gave an MIC ([1]; Strain 48, Cip, Clin) of 2 µg/mL, an MIC ([1]; Strain 49, Cip, Gm) of 0.5 µg/mL and an MIC ([1]; Strain 50, Cip, Clin, Gm, Rif, Dox) of 0.5 µg/mL. The MIC ([2]; Strain 51 VISA) was 8 µg/mL, the MIC ([2]; Strain 52 VISA) was 8 µg/mL and the “MIC Range” value ([2]; VISA (2) Met-R) was 8 µg/mL. For the same compound, the “% susceptible at breakpoint” value ([2]; VISA (2) Met-R, NCCLS (1999) breakpoints) was 100%.
In the case of CCC[C@@H]1C[C@@H](C(=O)N[C@@H]([C@H]2O[C@H](SC)[C@H](O)[C@@H](O)[C@H]2O)[C@H](C)Cl)N(C)C1 [Clindamycin, clindamycin], the “% susceptible at breakpoint” value ([1]; S. aureus (50) Met-R) is reported as 8%, the MIC ([1]; Staphylococcus aureus, Strain 1, Cip, Clin, Gm, read-out: MIC) is reported as greater than 64 µg/mL and the MIC ([1]; Staphylococcus aureus, Strain 2, Clin, Fos, read-out: MIC) is reported as greater than 64 µg/mL. It also gave an MIC ([1]; Staphylococcus aureus, Strain 3, Cip, Clin, Gm, read-out: MIC) greater than 64 µg/mL, an MIC ([1]; Staphylococcus aureus, Strain 4, Cip, Gm, read-out: MIC) of no more than 0.06 µg/mL and an MIC ([1]; Staphylococcus aureus, Strain 5, Cip, Clin, read-out: MIC) greater than 64 µg/mL. It also gave an MIC ([1]; Staphylococcus aureus, Strain 6, Clin, Gm, read-out: MIC) greater than 64 µg/mL, an MIC ([1]; Staphylococcus aureus, Strain 7, Cip, Gm, read-out: MIC) of no more than 0.06 µg/mL and an MIC ([1]; Staphylococcus aureus, Strain 8, Cip, Clin, read-out: MIC) greater than 64 µg/mL. The MIC ([1]; Staphylococcus aureus, Strain 9, Cip, Clin, Gm, read-out: MIC) was greater than 64 µg/mL, the MIC ([1]; Staphylococcus aureus, Strain 10, Cip, Clin, Gm, read-out: MIC) was 64 µg/mL (≈ 151 µM) and the MIC ([1]; Staphylococcus aureus, Strain 11, Clin, Rif, read-out: MIC) was greater than 64 µg/mL. For the same compound, the MIC ([1]; Staphylococcus aureus, Strain 12, Cip, Clin, read-out: MIC) was greater than 64 µg/mL, the MIC ([1]; Staphylococcus aureus, Strain 13, Cip, Clin, read-out: MIC) was greater than 64 µg/mL and the MIC ([1]; Staphylococcus aureus, Strain 14, Clin, Cip, read-out: MIC) was greater than 64 µg/mL. It also gave an MIC ([1]; Staphylococcus aureus, Strain 15, Cip, Clin, Gm, read-out: MIC) greater than 64 µg/mL, an MIC ([1]; Staphylococcus aureus, Strain 16, Cip, Clin, read-out: MIC) greater than 64 µg/mL and an MIC ([1]; Staphylococcus aureus, Strain 17, Cip, Clin, read-out: MIC) greater than 64 µg/mL. The MIC ([1]; Staphylococcus aureus, Strain 18, Cip, Clin, Gm, read-out: MIC) was greater than 64 µg/mL, the MIC ([1]; Staphylococcus aureus, Strain 19, Cip, Clin, Gm, read-out: MIC) was greater than 64 µg/mL and the MIC ([1]; Staphylococcus aureus, Strain 20, Cip, Clin, Gm, read-out: MIC) was 64 µg/mL (≈ 151 µM). It also gave an MIC ([1]; Staphylococcus aureus, Strain 21, Cip, Clin, Gm, read-out: MIC) greater than 64 µg/mL, an MIC ([1]; Staphylococcus aureus, Strain 22, Cip, Clin, read-out: MIC) greater than 64 µg/mL and an MIC ([1]; Staphylococcus aureus, Strain 23, Cip, Clin, Gm, read-out: MIC) greater than 64 µg/mL. For the same compound, the MIC ([1]; Staphylococcus aureus, Strain 24, Cip, Clin, Gm, read-out: MIC) was greater than 64 µg/mL, the MIC ([1]; Staphylococcus aureus, Strain 25, Cip, Clin, Gm, read-out: MIC) was 64 µg/mL (≈ 151 µM) and the MIC ([1]; Staphylococcus aureus, Strain 26, Cip, Clin, Fos, Gm, read-out: MIC) was 64 µg/mL (≈ 151 µM). It also gave an MIC ([1]; Staphylococcus aureus, Strain 27, Cip, Clin, Fos, Gm, read-out: MIC) of 64 µg/mL (≈ 151 µM), an MIC ([1]; Staphylococcus aureus, Strain 28, Cip, Clin, Gm, read-out: MIC) greater than 64 µg/mL and an MIC ([1]; Staphylococcus aureus, Strain 29, Clin, Fos, read-out: MIC) greater than 64 µg/mL. The MIC ([1]; Staphylococcus aureus, Strain 30, Cip, Clin, Gm, SXT, Dox, read-out: MIC) was 16 µg/mL (≈ 37.6 µM), the MIC ([1]; Staphylococcus aureus, Strain 31, Cip, Clin, Fox, Gm, read-out: MIC) was greater than 64 µg/mL and the MIC ([1]; Staphylococcus aureus, Strain 32, Cip, Clin, Gm, SXT, Rif, read-out: MIC) was 64 µg/mL (≈ 151 µM). The MIC ([1]; Staphylococcus aureus, Strain 33, Cip, Clin, Gm, read-out: MIC) was greater than 64 µg/mL, the MIC ([1]; Staphylococcus aureus, Strain 34, Cip, Clin, Gm, read-out: MIC) was greater than 64 µg/mL and the MIC ([1]; Staphylococcus aureus, Strain 35, Cip, Clin, Gm, read-out: MIC) was 64 µg/mL (≈ 151 µM). The MIC ([1]; Staphylococcus aureus, Strain 36, Cip, Clin, Fos, read-out: MIC) was 64 µg/mL (≈ 151 µM), the MIC ([1]; Staphylococcus aureus, Strain 37, Cip, Clin, Fos, Gm, read-out: MIC) was 64 µg/mL (≈ 151 µM) and the MIC ([1]; Staphylococcus aureus, Strain 38, Cip, Gm, read-out: MIC) was no more than 0.06 µg/mL. It also gave an MIC ([1]; Staphylococcus aureus, Strain 39, Cip, Clin, Fos, Gm, read-out: MIC) of 64 µg/mL (≈ 151 µM), an MIC ([1]; Staphylococcus aureus, Strain 40, Cip, Clin, Gm, read-out: MIC) greater than 64 µg/mL and an MIC ([1]; Staphylococcus aureus, Strain 41, Cip, Clin, read-out: MIC) of 64 µg/mL (≈ 151 µM). It also gave an MIC ([1]; Staphylococcus aureus, Strain 42, Cip, Clin, Gm, read-out: MIC) of 64 µg/mL (≈ 151 µM), an MIC ([1]; Staphylococcus aureus, Strain 43, Cip, Clin, Gm, read-out: MIC) of 64 µg/mL (≈ 151 µM) and an MIC ([1]; Staphylococcus aureus, Strain 44, Cip, Clin, Gm, Rif, Dox, read-out: MIC) of 64 µg/mL (≈ 151 µM). For the same compound, the MIC ([1]; Staphylococcus aureus, Strain 45, Cip, Clin, Gm, Rif, Dox, Fos, read-out: MIC) was 64 µg/mL (≈ 151 µM), the MIC ([1]; Staphylococcus aureus, Strain 46, Clin, Fos, read-out: MIC) was 64 µg/mL (≈ 151 µM) and the MIC ([1]; Staphylococcus aureus, Strain 47, Cip, Clin, Gm, read-out: MIC) was 64 µg/mL (≈ 151 µM). The MIC ([1]; Staphylococcus aureus, Strain 48, Cip, Clin, read-out: MIC) was 64 µg/mL (≈ 151 µM), the MIC ([1]; Staphylococcus aureus, Strain 49, Cip, Gm, read-out: MIC) was no more than 0.06 µg/mL and the MIC ([1]; Staphylococcus aureus, Strain 50, Cip, Clin, Gm, Rif, Dox, read-out: MIC) was greater than 64 µg/mL. It also gave an MIC50 ([1]; Staphylococcus aureus, S. aureus (50) Met-R, read-out: MIC 50%) greater than 64 µg/mL, an MIC90 ([1]; Staphylococcus aureus, S. aureus (50) Met-R, read-out: MIC 90%) greater than 64 µg/mL and an MIC ([2]; Staphylococcus aureus, Strain 51 VISA, read-out: MIC) greater than 64 µg/mL. For the same compound, the MIC ([2]; Strain 52 VISA) was greater than 64 µg/mL and the “MIC Range” value ([2]; VISA (2) Met-R) was greater than 64 µg/mL.
